In patent publication US20250000868A1, “USE OF ADENOSINE A2B RECEPTOR AS TARGET IN DRUGS FOR PREVENTION AND/OR TREATMENT OF PRURITUS” (The Fourth Affiliated Hospital, ZJU, priority 2023, published 2025):
“Also recorded” adds a separate entry of the source.

Key:
[1] = biological target: T1, adenosine A2B receptor (Mus musculus, UniProt Q60614); assay: Histamine-induced scratching behavioral experiment; format: in vivo; details: for number of histamine-induced scratches: within 30 min before histamine 250 μg/50 μL s.c. neck, scratches recorded within 30 min
T1 construct: from tissue; host or cells: living mouse; intrathecal dosing, receptor expressed in dorsal root ganglion neurons
T1 sequence (Q60614 1-332): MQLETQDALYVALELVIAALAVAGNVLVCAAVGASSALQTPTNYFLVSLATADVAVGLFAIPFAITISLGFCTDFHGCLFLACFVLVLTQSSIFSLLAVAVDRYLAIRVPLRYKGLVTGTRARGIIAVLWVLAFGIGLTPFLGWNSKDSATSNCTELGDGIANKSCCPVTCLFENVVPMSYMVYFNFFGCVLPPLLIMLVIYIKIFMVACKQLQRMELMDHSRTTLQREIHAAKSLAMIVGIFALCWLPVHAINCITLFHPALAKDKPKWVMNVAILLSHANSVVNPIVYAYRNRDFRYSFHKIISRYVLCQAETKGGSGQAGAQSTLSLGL
Description: (§1) Refer to the prior art (Jang et al., 2015) for scratching behavior. The specific operation method was as follows: each mouse neck hair was shaved two days before the experiment, and the mouse was housed in a transparent organic plastic chamber to receive acclimatization training for two consecutive days, at least 1 h a day. Adjacent transparent plastic chambers were separated by a piece of white paper to eliminate mutual interference between mice. On the day of the experiment, histamine (250 μg/50 μL) was subcutaneously injected into the mouse neck and the mice were immediately placed in the transparent plastic chamber to record scratching behaviors within 30 min using a camera. One effective scratch was defined as follows: a mouse lifted its hind leg to scratch the skin at the […] injection site and put the hind leg down, and despite the number of scratches in the interval between lifting the hind leg and putting it down, an effective scratching behavior was considered. To evaluate the antipruritic effect of PSB-603, the mice received an intrathecal injection of PSB-603 (the administration dose was 10 μL, and the dosing concentration was 1 or 10 μM) within 30 min before histamine injection.
(§2) Using a pharmacological method, the adenosine A2B receptor activity is blocked by intrathecal injection of selective adenosine A2B receptor antagonist PSB-603. […] Moreover, alleviating the effect of PSB-603 on scratch is related to the dose. […] Therefore, inhibition of the adenosine A2B receptor is an effective way to treat pruritus.

[2] = biological target: T1, adenosine A2B receptor; assay: Chloroquine-induced scratching behavioral experiment; format: in vivo; details: for number of chloroquine-induced scratches: within 30 min before chloroquine 200 μg/50 μL s.c. neck, scratches recorded within 30 min
Description: as §1, with “the experiment, chloroquine (200 μg/50 μL)” for “the experiment, histamine (250 μg/50 μL)”, “concentration was 1, 10 or 20” for “concentration was 1 or 10”, “10 or 20 μM) within” for “1 or 10 μM) within”, “min before chloroquine injection.” for “min before histamine injection.”
as §2

[3] = PSB-603 intrathecal 10 μL at 10 μM

CCCn1c(=O)[nH]c2nc(-c3ccc(S(=O)(=O)N4CCN(c5ccc(Cl)cc5)CC4)cc3)[nH]c2c1=O [PSB-603]
number of histamine-induced scratches [1, 3]: reduces the number of histamine-induced scratches | number of histamine-induced scratches ([1]; PSB-603 intrathecal 10 μL at dose of 1 μM): the number of animal scratches cannot be reduced | histamine-induced scratching behaviors, overall effect ([1]; intrathecal injection of PSB-603 in advance, 1 or 10 μM, FIG. 3C): dose-dependent inhibition; also recorded: can effectively prevent histamine-induced scratching behaviors | number of chloroquine-induced scratches [2, 3]: reduces the number of chloroquine-induced scratches | number of chloroquine-induced scratches ([2]; PSB-603 intrathecal 10 μL at 20 μM): reduces the number of chloroquine-induced scratches | chloroquine-induced scratching behaviors, overall effect ([2]; intrathecal injection of PSB-603 in advance, 1, 10 or 20 μM, FIG. 4): dose-dependent inhibition; also recorded: can effectively prevent chloroquine-induced scratching behaviors
